Source: patent US11389452B2, “Methods for increasing blood plasma 2′-deoxyuridine (dUrd) and thymidylate synthase inhibition” (Isofol Medical AB, priority 2017, dated 2022)

Key:
TS = details: cited from earlier work
colorectal cancer = details: cited from earlier work
[1] = biological target: T1, thymidylate synthase (TS) (Homo sapiens, UniProt P04818); experiment: Incremental plasma dUrd (surrogate marker of TS inhibition) 24 hours after bolus 5-FU plus folate in mCRC patients, by LC-MS/MS; assay type: in vivo; details: for Mean (t24 − t0) plasma dUrd: 24 hours
T1 construct: endogenous in cells; host or cells: patients with metastatic colorectal cancer (in vivo); plasma sampled
T1 sequence (P04818 2-313 limits assumed): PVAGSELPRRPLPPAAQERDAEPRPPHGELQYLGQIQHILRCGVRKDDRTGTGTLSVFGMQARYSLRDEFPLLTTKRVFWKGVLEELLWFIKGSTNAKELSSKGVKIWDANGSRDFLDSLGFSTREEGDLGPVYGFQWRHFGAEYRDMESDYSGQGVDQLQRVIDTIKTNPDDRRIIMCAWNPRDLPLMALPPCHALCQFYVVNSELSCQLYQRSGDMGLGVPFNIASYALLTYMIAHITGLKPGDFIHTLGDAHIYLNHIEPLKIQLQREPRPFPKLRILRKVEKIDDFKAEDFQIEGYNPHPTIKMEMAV
Procedure: The safety and efficacy of [6R]-5,10-methylenetetrahydrofolate ([6R]-MTHF) is analyzed in an open-label, multiple-site, Phase I/II Dose Cohort Trial (ISO-CC-005) in patients with stage IV colorectal cancer (mCRC) to determine the safe and tolerable i.v. bolus dose of 6R-MTHF in combination with standard doses of 5-FU (500 mg/m^2) alone or in combination with a fixed dose of Bevacizumab, Oxaliplatin or Irinotecan in patients with stage IV colorectal cancer. Among groups of patients (n≥3) ascending 6R-MTHF doses of 30-240 mg/m^2 BSA are being evaluated in the presence of various permutations of the cytotoxics, 5-FU alone or 5-FU plus oxaliplatin, bevacizumab or irinotecan given at standard dose levels. The study is expected to be completed by year end 2017. A summary of the study design and each study arm is depicted below in Table 1.
In Gothenburg, for almost two decades, clinical, treatment and outcomes data on all patients with CRC have been collected. Plasma and tissue samples have been stored in a biobank under appropriate physical conditions for long term storage. The database and the biobank operate under the auspices of the relevant ethical and regulatory permissions. Patients having been treated with the standard 5-FU dose, 500 mg/m^2 plus i.v. bolus LV, 60 mg/m^2 (equivalent to 30 mg/m^2 of LLV) were randomly drawn from the databank.
The present study is a historical group comparison study. All patients have been treated with a standard dose of 500 mg 5-FU given as a bolus injection plus the respective folate 6R-MTHF or LV also given as bolus injections.
All patients have been measured during two consecutive treatment cycles with 5-FU. Values for dUrd were measured immediately before injection of 5-FU (t0) and after 24 hours (t24). Mean values and standard deviations for differences between t24 and t0 were calculated for the patients on each dose level of 30 and 60 mg/m^2 6R-MTHF, respectively. Some values have also been assayed and calculated for 240 mg/m^26R-MTHF.
Twenty-four patients with metastatic colorectal cancer (mCRC) treated with 5-FU plus 60 mg/m^2 LV were drawn at random from the data base and levels of dUrd were determined at t0 and t24 from two treatment cycles for each patient and the mean values and standard deviations for the differences between t24 and t0 were calculated in the same way as for the 6R-MTHF patients. Since LV is a 50:50 mixture of the natural (1-formyl-tetrahydrofolate) and unnatural (d-formyl-tetrahydrofolate) isomers the active isomer constitutes one half of the LV doses given. The molecular weights for LV and 6R-MTHF are very similar and therefore 60 mg of LV may be considered as equimolar with 30 mg of 6R-MTHF.
The differences between all four groups were tested by means of the Friedman two-way analysis of variance and thereafter the difference between the two equimolar groups LV 60 mg/m^2 and 6R-MTHF 30 mg/m^2 was tested by means of the Mann-Whitney U test. P-values less than 0.05 were considered significant.
Plasma dUrd was determined by a method comprising liquid chromatography followed by tandem mass spectrometry broadly summarized as follows. Plasma samples were removed from −80° C. freezer, trichloroacetic acid was added to the plasma, and the samples mixed and centrifuged. The supernatant was filtered in a 10 kDa molecular weight cut-off membrane filter and again centrifuged for 30 min. The solution at the bottom of the tube was then ready for LC-MS/MS analysis. […]

pancreas cancer = details: CoFactor combined with 5-FU, phase I/II trial; cited from earlier work

Nc1nc2c(c(=O)[nH]1)N1CN(c3ccc(C(=O)N[C@@H](CCC(=O)O)C(=O)O)cc3)C[C@@H]1CN2 (single isomer, unassigned) [(6S)-isomer]
effect on the natural [6R]-isomer as co-substrate for TS (TS): partial competitive inhibitor

O=c1[nH]cc(F)c(=O)[nH]1 [5-FU, 5-Fluorouracil]
overall response rate (colorectal cancer; 5-FU alone): 10-15%

Nc1nc2c(c(=O)[nH]1)N1CN(c3ccc(C(=O)N[C@@H](CCC(=O)O)C(=O)O)cc3)C[C@H]1CN2 [6R-MTHF, [6R]-5,10-methylenetetrahydrofolic acid]
Mean (t24 − t0) plasma dUrd ([1]; 6R-MTHF 30 mg/m2 BSA bolus with 5-FU 500 mg/m2 bolus, 18 cycles): 74.7 pmol/mL | Mean (t24 − t0) plasma dUrd ([1]; 6R-MTHF 60 mg/m2 BSA bolus with 5-FU 500 mg/m2 bolus, 16 cycles): 91.8 pmol/mL | Mean (t24 − t0) plasma dUrd ([1]; 6R-MTHF 240 mg/m2 BSA bolus with 5-FU 500 mg/m2 bolus, 4 cycles): 99.9 pmol/mL | level of dUrd compared with equimolar LV ([1]; [6R]-MTHF 30 mg/m2 vs LV 60 mg/m2, together with 5-FU, p=0.03): significantly higher level of dUrd

Nc1nc(=O)c2c([nH]1)NCC1CN(c3ccc(C(=O)N[C@@H](CCC(=O)[O-])C(=O)[O-])cc3)CN21.[Ca+2] (stereo partly drawn) [CoFactor®, (dl)-5,10,-methylenepteroyl-monoglutamate calcium salt]
clinical benefit (stable disease or tumor response), share of patients (pancreas cancer): 40% | response rate (colorectal cancer; Phase II trial, previously untreated metastatic colorectal cancer): 35% | efficacy and safety compared with leucovorin (colorectal cancer; Phase IIb study in colorectal cancer): not demonstrated to be more efficacious than leucovorin

Nc1nc(=O)c2c([nH]1)NC[C@H](CNc1ccc(C(=O)N[C@@H](CCC(=O)O)C(=O)O)cc1)N2C=O [LLV]
Mean (t24 − t0) plasma dUrd ([1]; active dose 30 mg/m2 BSA LLV, given as 60 mg/m2 d,l-LV bolus, with 5-FU 500 mg/m2 bolus, 48 cycles): 48.7 pmol/mL

Nc1nc2c(c(=O)[nH]1)N(C=O)C(CNc1ccc(C(=O)N[C@@H](CCC(=O)O)C(=O)O)cc1)CN2 (some centres unmarked) [LV, 5-formyl tetrahydrofolate]
overall response rates (colorectal cancer; LV added to 5-FU): over 20%
